# Test results from PMC5698418 (Nature Communications, 2017).
# Tests used:
# [1] = parameters: method as in PMID 21370928, PMID 23200855; details: ref [34],[42]; cited from earlier work
# [2] = target: T1, HDAC8 (Homo sapiens, UniProt Q9BY41); assay: Biochemical HDAC assay (BPS Bioscience), HDAC8; details: 25 µM
# T1 construct: purchased BPS Bioscience (San Diego, CA), contract assay service
# [3] = system: Arc protein in dentate gyrus; assay: Arc immunohistochemistry in dentate gyrus after intraperitoneal injection; assay type: in vivo, mouse; details: 30 mg kg−1 i.p., 3 h
# Protocol: Male mice (C57BL/6 strain) were received as 6-weeks old and habituated to their home cage as trios for 2 weeks before conducting the experiments. During the habituation time period, mice were kept on a light–dark cycle with minimal disruption and unrestricted access to food and water. On experiment day, mice from the same cage were taken and randomly subjected to intraperitoneal injection of vehicle (25% Kolliphor EL (Sigma-Aldrich, C5135), 10% DMSO) or AK-7 (30 mg kg^−1) solution and immediately placed back in their home cage or transferred to a novel environment. The novel environment consisted of a large cage placed in a different room with new bedding, food, as well as multiple objects like tunnel, running wheel, igloo, and aspen labyrinth that the mice could freely explore. About 3 h after the injection procedure, mice were rapidly anesthetized and killed by decapitation. Finally, brain tissues were harvested and flash frozen in a dry ice/isopentane bath and stored at −80 °C. All experiments were approved by the Animal Care and Use Committee of the Massachusetts General Hospital and carried out according to institutional guidelines.
# Coronal sections containing the hippocampus from all animals were cut from the frozen blocks at a thickness of 20 µm with a CM3050 cryostat (Leica, Nussloch, Germany). […]
# (§1) The following approach was adopted to quantify the number of Arc-positive cell bodies and average acetyl-H3K9 immunostaining pixel intensity in dentate gyrus. First, complete dentate gyrus overlapping grayscale images of DAPI fluorescence and Arc or acetyl-H3K9 immunostaining were collected using a ×20 objective and Nikon Eclipse 90i upright microscope equipped with a motorized stage and image stitching capability. Second, the boundary of the dentate gyrus based on the DAPI fluorescence was determined in each image set with the ImageJ wand tool. Finally, this information was used for image segmentation and quantification of Arc-positive cell bodies or average acetyl-H3K9 immunostaining pixel intensity within each dentate gyrus images. […]
# [4] = system: acetyl-H3K9 in dentate gyrus; assay: Acetyl-H3K9 immunohistochemistry in dentate gyrus after intraperitoneal injection; assay type: in vivo, mouse; details: 30 mg kg−1 i.p., 3 h, home cage
# Protocol: Male mice (C57BL/6 strain) were received as 6-weeks old and habituated to their home cage as trios for 2 weeks before conducting the experiments. During the habituation time period, mice were kept on a light–dark cycle with minimal disruption and unrestricted access to food and water. On experiment day, mice from the same cage were taken and randomly subjected to intraperitoneal injection of vehicle (25% Kolliphor EL (Sigma-Aldrich, C5135), 10% DMSO) or AK-7 (30 mg kg^−1) solution and immediately placed back in their home cage or transferred to a novel environment. […]
# as §1
# [5] = target: T2, HDAC5 (Homo sapiens, UniProt Q9UQL6); assay: Biochemical HDAC assay (BPS Bioscience), HDAC5; details: 25 µM
# T2 construct: purchased BPS Bioscience (San Diego, CA), contract assay service
# T2 sequence (Q9UQL6 whole entry): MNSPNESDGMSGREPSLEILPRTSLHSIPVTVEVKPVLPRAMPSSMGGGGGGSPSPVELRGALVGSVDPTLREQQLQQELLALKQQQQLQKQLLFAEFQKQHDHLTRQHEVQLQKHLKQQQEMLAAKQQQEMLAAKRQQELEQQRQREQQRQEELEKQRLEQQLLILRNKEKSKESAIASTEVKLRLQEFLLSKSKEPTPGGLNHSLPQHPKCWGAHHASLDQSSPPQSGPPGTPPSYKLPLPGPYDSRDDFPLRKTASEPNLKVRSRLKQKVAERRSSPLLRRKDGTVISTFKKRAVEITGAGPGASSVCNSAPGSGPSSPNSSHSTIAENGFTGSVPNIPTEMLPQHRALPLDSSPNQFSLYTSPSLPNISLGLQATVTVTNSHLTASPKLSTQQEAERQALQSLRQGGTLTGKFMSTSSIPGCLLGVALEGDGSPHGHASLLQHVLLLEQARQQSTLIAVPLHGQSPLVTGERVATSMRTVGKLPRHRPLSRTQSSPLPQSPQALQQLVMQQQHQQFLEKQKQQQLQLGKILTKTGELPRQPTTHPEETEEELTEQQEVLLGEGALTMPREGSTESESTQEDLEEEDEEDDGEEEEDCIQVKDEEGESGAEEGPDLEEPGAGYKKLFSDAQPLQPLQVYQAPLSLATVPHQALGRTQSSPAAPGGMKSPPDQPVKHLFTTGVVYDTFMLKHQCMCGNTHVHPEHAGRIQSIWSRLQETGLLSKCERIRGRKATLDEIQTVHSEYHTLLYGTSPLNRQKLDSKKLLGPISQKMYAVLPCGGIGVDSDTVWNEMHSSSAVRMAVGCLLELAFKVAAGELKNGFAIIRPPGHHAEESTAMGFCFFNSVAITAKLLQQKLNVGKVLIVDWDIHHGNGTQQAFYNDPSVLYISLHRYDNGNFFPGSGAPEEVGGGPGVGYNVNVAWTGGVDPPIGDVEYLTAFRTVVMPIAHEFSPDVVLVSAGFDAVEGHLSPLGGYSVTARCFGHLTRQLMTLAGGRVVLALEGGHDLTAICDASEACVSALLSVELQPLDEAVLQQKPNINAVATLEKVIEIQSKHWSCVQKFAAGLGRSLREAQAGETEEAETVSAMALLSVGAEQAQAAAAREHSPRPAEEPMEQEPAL
# [6] = target: T3, HDAC6 (Homo sapiens, UniProt Q9UBN7); assay: Biochemical HDAC assay (BPS Bioscience), HDAC6; details: 25 µM
# T3 construct: purchased BPS Bioscience (San Diego, CA), contract assay service
# T3 sequence (Q9UBN7 whole entry): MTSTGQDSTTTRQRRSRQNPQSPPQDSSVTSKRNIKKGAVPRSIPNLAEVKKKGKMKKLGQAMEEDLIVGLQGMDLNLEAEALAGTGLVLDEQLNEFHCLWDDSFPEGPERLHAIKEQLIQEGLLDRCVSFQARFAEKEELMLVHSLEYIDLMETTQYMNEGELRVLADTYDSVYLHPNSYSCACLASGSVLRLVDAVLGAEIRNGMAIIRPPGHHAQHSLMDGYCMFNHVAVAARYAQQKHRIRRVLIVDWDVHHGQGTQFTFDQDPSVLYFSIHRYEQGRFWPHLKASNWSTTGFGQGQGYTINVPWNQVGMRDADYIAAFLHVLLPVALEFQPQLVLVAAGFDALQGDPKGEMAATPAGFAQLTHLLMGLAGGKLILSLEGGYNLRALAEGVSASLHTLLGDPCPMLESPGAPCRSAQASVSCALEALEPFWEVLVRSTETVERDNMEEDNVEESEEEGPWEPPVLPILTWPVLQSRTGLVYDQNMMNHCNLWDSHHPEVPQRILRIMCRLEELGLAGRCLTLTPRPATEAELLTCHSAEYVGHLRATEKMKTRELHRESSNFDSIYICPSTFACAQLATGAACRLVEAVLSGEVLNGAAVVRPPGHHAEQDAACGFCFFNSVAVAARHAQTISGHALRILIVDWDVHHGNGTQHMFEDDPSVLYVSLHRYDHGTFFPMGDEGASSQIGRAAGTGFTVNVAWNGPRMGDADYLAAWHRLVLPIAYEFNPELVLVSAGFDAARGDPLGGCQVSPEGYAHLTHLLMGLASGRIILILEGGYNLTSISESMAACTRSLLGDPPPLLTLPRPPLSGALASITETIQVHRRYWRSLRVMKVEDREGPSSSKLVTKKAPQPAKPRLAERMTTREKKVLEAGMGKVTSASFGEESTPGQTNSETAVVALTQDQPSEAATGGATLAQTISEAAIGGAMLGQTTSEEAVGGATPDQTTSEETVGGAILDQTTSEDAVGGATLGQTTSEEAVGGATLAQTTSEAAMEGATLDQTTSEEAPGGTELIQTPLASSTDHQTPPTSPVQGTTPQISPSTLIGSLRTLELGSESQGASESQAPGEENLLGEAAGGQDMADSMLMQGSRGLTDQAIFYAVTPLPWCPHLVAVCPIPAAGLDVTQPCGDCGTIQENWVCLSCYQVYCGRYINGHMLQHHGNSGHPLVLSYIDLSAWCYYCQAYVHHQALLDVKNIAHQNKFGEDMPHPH
# [7] = system: GluA1 mRNA; assay: GluA1 mRNA by RT-qPCR in cortical neurons; assay type: cell-based, mouse; details: BDNF plus AK-7 16.7 µM vs BDNF plus vehicle, 6 h
# Protocol: After experimental treatment, total RNA was isolated from primary cortical neuron cultures using the TRIzol method (Invitrogen). The concentration of total RNA was measured using a NanoDrop 1000 spectrophotometer (Thermo Fisher Scientific, Rockford, IL) and first-strand complementary DNA (cDNA) was synthesized using the iScript cDNA Synthesis Kit (Bio-Rad, Hercules, CA). Real-time PCRs were performed using gene-specific primers and monitored by quantification of SYBR Green I fluorescence using a Bio-Rad CFX96 Real-Time Detection System. Expression was normalized against Gapdh expression. The relative quantification from at least three biological replicates was performed using the comparative cycle threshold (∆∆CT) method.
# Primers for real-time reverse transcription PCR experiments were: Arc, 5′-[…]-3′ (forward) and 5′-[…]-3′ (reverse); Map2, 5′-[…]-3′ (forward) and 5′-[…]-3′ (reverse); GluA1, 5′-[…]-3′ (forward) and 5′-[…]-3′ (reverse); GluA2, 5′-[…]-3′ (forward) and 5′-[…]-3′ (reverse); Gapdh, 5′-[…]-3′ (forward) and 5′-[…]-3′ (reverse).
# Supplementary Fig. 6. […] Bars represent mean fold-change and error bars indicate range from five biological replicates.
# [8] = system: Arc protein; assay: Western blot of total Arc protein in primary cortical neurons; assay type: cell-based, mouse; details: BDNF 6 h supplemented with compound
# Protocol: Forebrains of E16.5 C57BL/6 mouse embryos were dissected and then dissociated in trypsin solution for 15 min followed by three washes with phosphate-buffered saline (PBS). Single-cell suspension was achieved by gentle pipet trituration. Neurons were seeded in poly-L-lysine/laminin-coated six-well plates at a density of 2 × 10^6 per well and maintained in neurobasal medium containing B27 supplement (2%, Invitrogen, Grand Island, NY), penicillin (50 units ml^−1, Invitrogen), streptomycin (50 µg ml^−1, Invitrogen), and glutamine (1 mM, Sigma). For experiments involving BDNF (EMD Millipore Corps, Billerica, MA), the stock solution (2 ng µl^−1 in water) was added directly to the culture medium at a final concentration of 100 ng ml^−1 for the indicated period of time.
# For western blot analyses, cells were collected by scraping in ice-cold radioimmunoprecipitation assay (RIPA) buffer (50 mM Tris-HCl (pH 8.0), 300 mM NaCl, 0.5% Igepal-630, 0.5% deoxycholic acid, 0.1% SDS, 1 mM EDTA) supplemented with a cocktail of protease inhibitors (Complete Protease Inhibitor without EDTA, Roche Applied Science, Indianapolis, IN) and phosphatase inhibitors (phosphatase inhibitor cocktail A, Santa Cruz Biotechnology). One volume of 2× Laemmli buffer (100 mM Tris-HCl (pH 6.8), 4% SDS, 0.15% bromophenol blue, 20% glycerol, 200 mM β-mercaptoethanol) was added and the extracts were boiled for 5 min. Samples were adjusted to an equal concentration after protein concentrations were determined using the BCA assay (Pierce, Thermo Fisher Scientific). Lysates were separated using SDS–PAGE and transferred to a nitrocellulose membrane. After transfer, the membrane was blocked in TBST (Tris-buffered saline + 0.1% Tween 20) supplemented with 5% nonfat powdered milk and probed with the indicated primary antibody at 4 °C overnight. After washing with TBST, the membrane was incubated with the appropriate secondary antibody and visualized using enhanced chemiluminescence (ECL) reagents according to the manufacturer’s guidelines (Pierce, Thermo Fisher Scientific).
# The following procedure was used to quantify western blots. First, equal quantity of protein lysate was analyzed by SDS–PAGE for each biological replicate. Second, the exposure time of the film to the ECL chemiluminescence was the same for each biological replicate. Third, all the exposed films were scanned on a Brother MFC-J485DW scanner in grayscale at a resolution of 300 dpi. Fourth, the look-up table (LUT) of the scanned tiff images was inverted and the intensity of each band was individually measured using the selection tool and the histogram function in Adobe Photoshop CC 2015 software. […]
# [9] = target: T4, HDAC3 (Homo sapiens, UniProt O15379); assay: Biochemical HDAC assay (BPS Bioscience), HDAC3; details: 25 µM
# T4 construct: purchased BPS Bioscience (San Diego, CA), contract assay service
# T4 sequence (O15379 whole entry): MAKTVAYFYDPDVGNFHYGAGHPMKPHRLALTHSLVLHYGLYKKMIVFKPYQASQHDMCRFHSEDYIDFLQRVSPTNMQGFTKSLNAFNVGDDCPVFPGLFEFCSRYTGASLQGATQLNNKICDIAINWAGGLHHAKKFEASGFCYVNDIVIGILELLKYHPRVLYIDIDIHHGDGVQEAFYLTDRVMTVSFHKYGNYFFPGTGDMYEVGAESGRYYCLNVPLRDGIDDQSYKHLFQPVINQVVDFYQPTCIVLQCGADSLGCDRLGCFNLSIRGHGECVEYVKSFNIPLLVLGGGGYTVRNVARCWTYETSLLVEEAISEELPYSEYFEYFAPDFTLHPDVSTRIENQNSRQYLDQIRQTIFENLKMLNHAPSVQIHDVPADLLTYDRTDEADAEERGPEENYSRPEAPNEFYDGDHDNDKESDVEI
# T4 sequence (Q9Y618 395-489 partner limits assumed): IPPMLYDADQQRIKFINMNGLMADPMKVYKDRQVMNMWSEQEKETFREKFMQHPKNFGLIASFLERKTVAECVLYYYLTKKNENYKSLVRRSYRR
# T1 sequence (Q9BY41 whole entry): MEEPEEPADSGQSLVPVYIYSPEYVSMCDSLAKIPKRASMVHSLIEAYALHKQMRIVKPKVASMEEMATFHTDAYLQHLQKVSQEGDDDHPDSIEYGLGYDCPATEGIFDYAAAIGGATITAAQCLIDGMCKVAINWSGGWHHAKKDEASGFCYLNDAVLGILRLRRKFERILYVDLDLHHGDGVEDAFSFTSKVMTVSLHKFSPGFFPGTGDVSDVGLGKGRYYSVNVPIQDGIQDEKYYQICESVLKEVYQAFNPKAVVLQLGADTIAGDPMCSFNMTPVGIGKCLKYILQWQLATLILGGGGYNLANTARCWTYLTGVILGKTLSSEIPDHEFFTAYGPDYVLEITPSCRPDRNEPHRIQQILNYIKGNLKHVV
smiles,measurement,setting,value
O=C(Nc1cccc(Br)c1)c1cccc(S(=O)(=O)N2CCCCCC2)c1 [AK-7],blood–brain barrier crossing,[1],can efficiently cross the blood–brain barrier
same,inhibitory activity toward HDAC8,[2],failed to show any inhibitory activity
same,Arc immunofluorescence signal intensity in cell bodies vs vehicle,[3]; home cage,not statistically different
same,number of neurons with prominent Arc immunostaining in dentate gyrus vs vehicle,[3]; home cage,more than eight times
same,number of Arc immunopositive cell bodies in dentate gyrus vs vehicle,[3]; novel environment,did not led to more Arc immunopositive cell bodies
same,acetyl-H3K9 immunofluorescence staining intensity in dentate gyrus vs vehicle,[4],small but statistically significant increase
same,inhibitory activity toward HDAC5,[5],failed to show any inhibitory activity
same,inhibitory activity toward HDAC6,[6],failed to show any inhibitory activity
same,GluA1 mRNA expression,[7],does not affect
same,"total Arc protein vs BDNF plus vehicle control (western blot, Arc/β-actin)",[8],significantly more Arc protein
same,inhibitory activity toward HDAC3,[9],failed to show any inhibitory activity
